The test system of test [1] is Lactobacillus delbrueckii STYM1 strain pyruvate oxidase (L. delbrueckii Pox, LDBND_1487), wild type, full-length. In words: Phospholipid activation assay of L. delbrueckii Pox. The format is biochemical. The settings on record: various concentrations; 16:0-18:1 acyl chains. On the procedure: (§1) Pyruvate oxidase enzyme or pyruvate:oxygen 2-oxidoreductase (phosphorylating) (EC 1.2.3.3) was derived from Lactobacillus delbrueckii STYM1 strain (16).
Pyruvate oxidase activity was measured as previously described (16). Briefly, 50 mM sodium pyruvate, 15 μM FAD, 300 μM TPP, 0.03% N-ethyl-N-(2-hydroxy-3-sulfopropyl)-m-toluidine (sigma), 0.015% 4-aminoantipyrine (sigma), and 33 μg/mL horseradish peroxidase (Sigma) were combined with purified pox enzyme. After a 10-minute incubation at room temperature, sodium phosphate pH 5.6 was added to 50 mM final concentration to initiate the reaction. The formation of a quinoneimine dye at 25° C. was measured by an increase in absorbance at 550 nm and the specific activity was calculated as described. 1 unit of Pox activity is defined as the production of 1 μmol of hydrogen peroxide per minute and this was converted to μM/min for kinetic analysis.
Phosphotidylethanolamine (16:0-18:1) (Avanti Lipids), Phosphotidylcholine (16:0-18:1) (Avanti Lipids), and Phosphotidylglycerol (16:0-18:1) (Avanti Lipids) dissolved in chloroform were evaporated under a steady stream of argon gas and dried in a vacuum desiccator for 1 hour to evaporate residual chloroform. The phospholipids were resuspended in 20 mM Bis-Tris 150 mM NaCl pH 6 and incubated at 37° C. with shaking at 225 rpm for 30 minutes. The suspension was vortexed for 30 seconds and vortexed immediately prior to each use.
(§2) Phospholipids were added to the pyruvate oxidase assay mixture at various concentrations and enzyme activity was measured as described above. Fold activity was calculated relative to enzyme activity without phospholipid.

Test [2] concerns Lactobacillus delbrueckii STYM1 strain pyruvate oxidase (L. delbrueckii Pox, LDBND_1487), wild type, C-terminal His6. The test can be described thus: Pyruvate oxidase activity assay and kinetic parameters (oxidative coupling, H2O2 production, A550). The format is biochemical. The following applies: for Km: 25° C. On the procedure:
The C-terminal primer encoded a glycine-serine linker followed by a 6-histidine tag and a stop codon. The PCR product was ligated into the pFLAG-CTC vector (Sigma) using the NdeI and XhoI restriction sites and transformed into DH5α E. coli resulting in the plasmid pFLAG-CTC_Pox. The construct was confirmed by PCR and sequencing. pFLAG-CTC_Pox was transformed into LOBSTR E. coli in which Pox was expressed as a C-terminal His6-Pox. A 6 mL starter culture was incubate at 37° C. overnight in LB supplemented with 100 μg/mL of ampicillin. The starter culture was diluted 1:100 into 40 mL of LB supplemented with 100 μg/mL of ampicillin and grown at 37° C. until the OD600 reached 0.4-0.8. The temperature was then shifted to 26° C. and the cells were incubated with 1 mM isopropyl-β-D-thiogalactopyranoside (IPTG) for 20 hours. The cells were harvested by centrifugation at 3,200×g for 10 minutes, resuspended in 1 mL PBS EDTA-free cOmplete protease inhibitor cocktail (Roche), and lysed by sonication on ice, as described above. […] Protein purity was assessed by SDS-PAGE and Coomassie staining.
Pyruvate oxidase activity of recombinant Pox was assessed by an oxidative coupling reaction. […] Immediately upon addition of purified Pox, the formation of a quinoneimine dye was measured by an increase in the absorbance at 550 nm which was recorded every 30 seconds at room temperature. […] Pox activity is assessed by determining the change in absorbance at 550 nm per minute. […] Activity was determined according to the following equation: specific activity=[(ΔA550/min)(dilution factor)(total reaction volume)]/[(36.88)(0.5)(path length)(sample volume)(C)], where the total reaction volume is 1 ml, the millimolar extinction coefficient of quinoneimine dye is 36.88, the factor of 0.5 was determined based on the fact that 1 mol of hydrogen peroxide produces 0.5 mol of quinoneimine dye, the light path length is 1 cm, the sample volume is 0.1 ml, and C is the concentration of undiluted enzyme in mg/ml. […]
Pyruvate oxidase activity was measured as previously described (16). […]

For test [3], the system named is Lactobacillus delbrueckii STYM1 pyruvate oxidase variant Δ32 (C-terminal truncation lacking the last 32 amino acids). In words: Phospholipid activation assay of L. delbrueckii Pox Δ32. The format is biochemical. The settings on record: various PE concentrations.
From the text: The C-terminus of E. coli Pox is important for lipid activation of the enzyme (13). To test if the C-terminus was important in the L. delbrueckii Pox, a C-terminal truncation was generated that lacked the last 32 amino acids. The enzyme was purified and tested for its ability to be activated by PE (FIG. 18A). […] This is consistent with the E. coli pox truncation having greater activity partially mimicking lipid activation (20). Furthermore, the Δ32 enzyme was only weakly activated by PE to approximately 2-fold greater than the enzyme without PE compared to an approximately 6-fold activation with the full-length enzyme (FIG. 15B and FIG. 18C).
The PCR product was ligated into the pFLAG-CTC vector (Sigma, St. Louis, MO) using the NdeI and XhoI restriction sites. […] The construct was transformed into LOBSTR E. coli, in which the L. delbrueckii Δ32 Pox was expressed as a C-terminal His6-Pox. […] Protein purity was assessed by SDS-PAGE and Coomassie staining.
Pyruvate oxidase activity was measured as previously described (16). […] The formation of a quinoneimine dye at 25° C. was measured by an increase in absorbance at 550 nm and the specific activity was calculated as described. […]
as §2

Test [4] relates to Lactobacillus delbrueckii STYM1 strain pyruvate oxidase (L. delbrueckii Pox, LDBND_1487), wild type. The test can be described thus: PE co-sedimentation. The format is binding. The settings on record: 1 mM PE, 50 mM pyruvate, 300 μM TPP, 15 μM FAD, 30 minutes at room temperature. As to the method:
as §1
PE was prepared as described above for activation experiments. 3 μg of L. delbrueckii Pox was incubated with 50 mM pyruvate, 300 μM TPP, and 15 μM FAD with either 1 mM PE or no PE for 30 minutes at room temperature. The PE fraction was precipitated by centrifugation at 16,000×g for 20 minutes at 4° C. The supernatant was aspirated as the soluble fraction and the PE pellet was resuspened in an equal amount of buffer. The fractions were visualized by Coomassie staining after SDS-PAGE.

Read-outs that look alike come from different tables or passages of the source.

For `CCCCCCCC/C=C\CCCCCCCC(=O)O[C@H](COC(=O)CCCCCCCCCCCCCCC)COP(=O)([O-])OCC[N+](C)(C)C` [PC, Phosphotidylcholine (16:0-18:1)], in test [1], the “catalytic activation by phospholipid (in words)” value (“catalytic activation” for short) is on record as “not PC or PG”.

With `CCCCCCCC/C=C\CCCCCCCC(=O)O[C@H](COC(=O)CCCCCCCCCCCCCCC)COP(=O)(O)OCCN` [PE, Phosphotidylethanolamine (16:0-18:1)], the “increase in kcat relative to the enzyme in the absence of PE” value in test [2] (7.2 mM PE vs no PE) is on record as “approximately 18 fold”. The “catalytic activation” value in test [1] is “catalytically activated specifically by PE”. Also, in test [3], the “fold activity relative to the enzyme without PE” value is “approximately 2 fold”. For the same compound, the “co-precipitation with PE” value in test [4] is “did not co-precipitate with PE”.

With `CCCCCCCC/C=C\CCCCCCCC(=O)O[C@H](COC(=O)CCCCCCCCCCCCCCC)COP(=O)(O)OCC(O)CO` (some centres unmarked) [PG, Phosphotidylglycerol (16:0-18:1)], the “catalytic activation” value in test [1] is listed as “not PC or PG”.

Consider phosphate, for which the Km in test [2] (with 7.2 mM PE, 170 nM enzyme, read-out: km for phosphate (with PE)) was 1.25 mM; in test [2] (without PE, 1.76 μM enzyme, pyruvate 50 mM, pH 5.6, read-out: km for phosphate), 8 mM.
